{"source": "ChEMBL document CHEMBL5143672", "about": "“New diarylpentanoids and chalcones as potential antimicrobial adjuvants” (2022)", "key": {"Salmonella typhimurium": {"tested_on": "Salmonella typhimurium", "assay": "Antibacterial activity against Salmonella enterica serovar typhimurium SL1344 (SE03) assessed as inhibition of bacterial growth by broth microdilution method", "type": "functional, Salmonella enterica subsp. enterica serovar Typhimurium"}, "Escherichia coli [1]": {"tested_on": "Escherichia coli", "assay": "Antibacterial activity against Escherichia coli ATCC 25922 assessed as inhibition of bacterial growth by broth microdilution method", "type": "functional"}, "Staphylococcus aureus [2]": {"tested_on": "Staphylococcus aureus", "assay": "Antibacterial activity against methicillin and ofloxacin-resistant Staphylococcus aureus 272123 assessed as inhibition of bacterial growth by broth microdilution method", "type": "functional"}, "Staphylococcus aureus [3]": {"tested_on": "Staphylococcus aureus", "assay": "Antibacterial activity against Staphylococcus aureus ATCC 25923 assessed as inhibition of bacterial growth by broth microdilution method", "type": "functional"}, "[4]": {"assay": "Inhibition of quorum sensing system in Chromobacterium violaceum CV026 assessed as reduction in pigment production co-cultured with Sphingomonas paucimobilis Ezf 10-17 for 24 to 48 hrs", "conditions": "time 24-48 hrs"}, "[5]": {"tested_on": "Salmonella enterica subsp. enterica serovar Typhimurium", "assay": "Inhibition of Multidrug resistance efflux pump in Salmonella enterica serovar typhimurium SL1344 (SE03) assessed as relative fluorescence index using ethidium bromide as substrate at 50 uM by fluorescence based analysis"}, "Enterococcus faecalis [6]": {"tested_on": "Enterococcus faecalis", "assay": "Antibacterial activity against Enterococcus faecalis ATCC 29212 assessed as inhibition of bacterial growth by broth microdilution method", "type": "functional"}, "Staphylococcus aureus [7]": {"tested_on": "Staphylococcus aureus", "assay": "Inhibition of biofilm formation in Staphylococcus aureus ATCC 25923 at 100 uM incubated for 48 hrs by crystal violet staining based analysis", "type": "functional"}, "Pseudomonas aeruginosa": {"tested_on": "Pseudomonas aeruginosa", "assay": "Antibacterial activity against Pseudomonas aeruginosa ATCC 27853 assessed as inhibition of bacterial growth by broth microdilution method", "type": "functional"}, "Enterococcus faecalis [8]": {"tested_on": "Enterococcus faecalis", "assay": "Antimicrobial adjuvant activity against Enterococcus faecalis B3/101 assessed as potentiation of vancomycin-induced antibacterial activity by measuring fold reduction in vancomycin MIC at 64 ug/ml by broth microdilution method", "type": "functional", "conditions": "dose 64 µg/ml"}, "Candida albicans [9]": {"tested_on": "Candida albicans", "assay": "Antifungal activity against Candidia albicans ATCC 10231 assessed as inhibition of fungal growth by broth microdilution method", "type": "functional"}, "Trichophyton rubrum": {"tested_on": "Trichophyton rubrum", "assay": "Antifungal activity against Trichophyton rubrum FF5 assessed as inhibition of fungal growth by broth microdilution method", "type": "functional"}, "Escherichia coli [10]": {"tested_on": "Escherichia coli", "assay": "Antimicrobial adjuvant activity against ESBL-producing Escherichia coli SA/2 assessed as potentiation of cefotaxime-induced antibacterial activity by measuring fold reduction in cefotaxime MIC at 64 ug/ml by broth microdilution method", "type": "functional", "conditions": "dose 64 µg/ml"}, "Aspergillus fumigatus": {"tested_on": "Aspergillus fumigatus", "assay": "Antifungal activity against Aspergillus fumigatus ATCC 204305 assessed as inhibition of fungal growth by broth microdilution method", "type": "functional"}, "[11]": {"assay": "Inhibition of Multidrug resistance efflux pump in Staphylococcus aureus 272123 assessed as relative fluorescence index using ethidium bromide as substrate at 50 uM by fluorescence based analysis"}, "[12]": {"assay": "Inhibition of quorum sensing system in Chromobacterium violaceum wild type 85 assessed as reduction in pigment production incubated for 24 to 48 hrs", "conditions": "time 24-48 hrs"}, "Serratia marcescens": {"tested_on": "Serratia marcescens", "assay": "Inhibition of quorum sensing system in Serratia marcescens AS-1 assessed as reduction in pigment production incubated for 24 to 48 hrs", "conditions": "time 24-48 hrs"}, "Staphylococcus aureus [13]": {"tested_on": "Staphylococcus aureus", "assay": "Inhibition of biofilm formation in Staphylococcus aureus 272123 at 100 uM incubated for 48 hrs by crystal violet staining based analysis", "type": "functional"}, "Candida albicans [14]": {"tested_on": "Candida albicans", "assay": "Antifungal activity against Candida albicans ATCC 10231 assessed as inhibition of fungal growth incubated for 18 hrs by optical density based analysis", "type": "functional"}, "[15]": {"assay": "Inhibition of Multidrug resistance efflux pump in Staphylococcus aureus 272123 assessed as relative fluorescence index using ethidium bromide as substrate at 25 uM by fluorescence based analysis"}, "Enterobacter cloacae": {"tested_on": "Enterobacter cloacae", "assay": "Antibacterial activity against Enterobacter cloacae 45301 assessed as inhibition zone incubated for 24 hrs by agar plate method", "type": "functional"}, "Micrococcus luteus": {"tested_on": "Micrococcus luteus", "assay": "Antibacterial activity against Micrococcus luteus 28001 assessed as inhibition zone incubated for 24 hrs by agar plate method", "type": "functional"}}}
{"smiles": "COc1ccccc1/C=C1\\CCc2ccccc2C1=O", "values": [{"measurement": "MIC", "setting": "Salmonella typhimurium", "result": "> 64", "unit": "µg/mL"}, {"measurement": "MIC", "setting": "Escherichia coli [1]", "result": "> 64", "unit": "µg/mL"}, {"measurement": "MIC", "setting": "Staphylococcus aureus [2]", "result": "> 64", "unit": "µg/mL"}, {"measurement": "MIC", "setting": "Staphylococcus aureus [3]", "result": "> 64", "unit": "µg/mL"}, {"measurement": "Activity", "setting": "[4]", "result": 48, "unit": "mm"}, {"measurement": "RFU", "setting": "[5]", "result": 1.32}, {"measurement": "MIC", "setting": "Enterococcus faecalis [6]", "result": "> 64", "unit": "µg/mL"}, {"measurement": "inhibition at 100 µM", "setting": "Staphylococcus aureus [7]", "result": 0, "unit": "%"}, {"measurement": "MIC", "setting": "Pseudomonas aeruginosa", "result": "> 64", "unit": "µg/mL"}, {"measurement": "fold change (FC)", "setting": "Enterococcus faecalis [8]", "result": 2}, {"measurement": "MIC", "setting": "Candida albicans [9]", "result": "> 128", "unit": "µg/mL"}, {"measurement": "MIC", "setting": "Trichophyton rubrum", "result": "> 128", "unit": "µg/mL"}, {"measurement": "fold change (FC)", "setting": "Escherichia coli [10]", "result": 2}, {"measurement": "MIC", "setting": "Aspergillus fumigatus", "result": "> 128", "unit": "µg/mL"}, {"measurement": "RFU", "setting": "[11]", "result": 0.88}, {"measurement": "Activity", "setting": "[12]", "result": 0, "unit": "mm"}, {"measurement": "Activity", "setting": "Serratia marcescens", "result": 0, "unit": "mm"}, {"measurement": "inhibition at 100 µM", "setting": "Staphylococcus aureus [13]", "result": 83.3, "unit": "%"}]}
{"smiles": "COc1cc(OC)c2c(c1)OC/C(=C\\c1ccccc1)C2=O", "values": [{"measurement": "MIC", "setting": "Candida albicans [14]", "result": 25, "unit": "µM"}]}
{"smiles": "COC(=O)[C@H]1[C@H]2C[C@@H]3c4[nH]c5cc(OC)ccc5c4CCN3C[C@H]2C[C@@H](OC(=O)c2cc(OC)c(OC)c(OC)c2)[C@@H]1OC", "note": "[RESERPINE]", "values": [{"measurement": "RFU", "setting": "[15]", "result": 0.35}, {"measurement": "inhibition at 100 µM", "setting": "Staphylococcus aureus [7]", "result": 22.3, "unit": "%"}, {"measurement": "inhibition at 100 µM", "setting": "Staphylococcus aureus [13]", "result": 72.1, "unit": "%"}]}
{"smiles": "O=C1/C(=C/c2ccccc2Br)CC/C1=C\\c1ccccc1Br", "values": [{"measurement": "inhibition zone (IZ)", "setting": "Enterobacter cloacae", "result": 10, "unit": "mm"}]}
{"smiles": "COc1ccc(/C=C2\\COC/C(=C\\c3ccc(OC)c(OC)c3)C2=O)cc1OC", "values": [{"measurement": "MIC", "setting": "Salmonella typhimurium", "result": "> 64", "unit": "µg/mL"}, {"measurement": "MIC", "setting": "Escherichia coli [1]", "result": "> 64", "unit": "µg/mL"}, {"measurement": "MIC", "setting": "Staphylococcus aureus [2]", "result": "> 64", "unit": "µg/mL"}, {"measurement": "MIC", "setting": "Staphylococcus aureus [3]", "result": "> 64", "unit": "µg/mL"}, {"measurement": "Activity", "setting": "[4]", "result": 0, "unit": "mm"}, {"measurement": "RFU", "setting": "[5]", "result": -0.02}, {"measurement": "MIC", "setting": "Enterococcus faecalis [6]", "result": "> 64", "unit": "µg/mL"}, {"measurement": "inhibition at 100 µM", "setting": "Staphylococcus aureus [7]", "result": 0, "unit": "%"}, {"measurement": "MIC", "setting": "Pseudomonas aeruginosa", "result": "> 64", "unit": "µg/mL"}, {"measurement": "MIC", "setting": "Candida albicans [9]", "result": "> 128", "unit": "µg/mL"}, {"measurement": "MIC", "setting": "Trichophyton rubrum", "result": "> 128", "unit": "µg/mL"}, {"measurement": "fold change (FC)", "setting": "Escherichia coli [10]", "result": 2}, {"measurement": "MIC", "setting": "Aspergillus fumigatus", "result": "> 128", "unit": "µg/mL"}, {"measurement": "RFU", "setting": "[11]", "result": 2.47}, {"measurement": "Activity", "setting": "[12]", "result": 0, "unit": "mm"}, {"measurement": "Activity", "setting": "Serratia marcescens", "result": 0, "unit": "mm"}, {"measurement": "inhibition at 100 µM", "setting": "Staphylococcus aureus [13]", "result": 0, "unit": "%"}]}
{"smiles": "COc1cc(/C=C2\\CCC/C(=C\\c3cc(OC)c(OC)c(OC)c3)C2=O)cc(OC)c1OC", "values": [{"measurement": "inhibition zone (IZ)", "setting": "Micrococcus luteus", "result": 9, "unit": "mm"}, {"measurement": "inhibition zone (IZ)", "setting": "Enterobacter cloacae", "result": 10, "unit": "mm"}]}
